Reference: ChEMBL document CHEMBL1201862, “PubChem BioAssay data set” (2004)
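Growth conditions: 96-well plates. Treatment: test compound, 48 hours, 5 concentrations. Analysis: linear interpolation between bracketing concentrations; unreached endpoints set to highest concentration. GI50: concentration for 50% inhibition of growth.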 Activity calls are given as the source filed them. Cut-off read from the data, not from the text of the source: active = GI50 up to about 1.1 µM and inactive = higher.

Tests used:
Experiment in all cases: DTP human tumour cell line panel, 48 h
[1] = tested on: SF-295
[2] = tested on: U-251
[3] = tested on: MCF7
[4] = tested on: SF-539
[5] = tested on: SK-MEL-28
[6] = tested on: M19-MEL
[7] = tested on: SNB-19
[8] = tested on: A549
[9] = tested on: KM12
[10] = tested on: MDA-MB-435
[11] = tested on: M14
[12] = tested on: SNB-75
[13] = tested on: SN12C
[14] = tested on: UACC-62
[15] = tested on: NCI-H23
[16] = tested on: NCI-H226
[17] = tested on: SF-268
[18] = tested on: HL-60
[19] = tested on: COLO 205
[20] = tested on: EKVX

Measured: GI50

CC1=C(C(=O)Nc2ccc(Cl)c(C(=O)OC(C)C)c2)SCCO1
inactive: [1] 54.7 µM | [2] 55.7 µM | [3] 55.3 µM | [4] > 89.3 µM | [5] 74.6 µM | [6] 26.6 µM | [7] 70.5 µM | [8] 50.1 µM | [9] 80.9 µM | [10] > 100 µM | [11] > 100 µM | [12] 75.9 µM | [13] > 100 µM | [14] 67.6 µM | [15] 69.2 µM | [16] 75.3 µM | [17] 30.6 µM | [18] 13.8 µM | [19] 51.9 µM | [20] 71.4 µM

Oc1cc(-c2ccccc2)nc2cc3c(cc12)OCO3
inactive: [1] 8.57 µM | [2] 29.2 µM | [3] 36.8 µM | [4] 6.05 µM | [5] 6.75 µM | [6] 3.21 µM | [7] 20 µM | [8] 14 µM | [9] 1.54 µM | [11] 7.36 µM | [12] 2.6 µM | [13] 12.8 µM | [14] 5.52 µM | [15] 8.55 µM | [16] 11.8 µM | [17] 3.83 µM | [18] 4.11 µM | [19] 6.21 µM | [20] 15.6 µM

O=C(OC(=O)n1ccc2ccccc21)n1ccc2ccccc21
inactive: [1] > 92.3 µM | [2] > 100 µM | [3] > 100 µM | [4] > 100 µM | [5] > 100 µM | [6] > 100 µM | [7] > 100 µM | [8] > 100 µM | [9] > 100 µM | [12] 84.1 µM | [13] > 100 µM | [14] > 100 µM | [15] > 100 µM | [16] > 100 µM | [17] > 100 µM | [18] > 100 µM | [19] > 100 µM | [20] > 100 µM
